Source: patent US20210379151A1 (ACADEMIA SINICA, priority 2018, published 2021)
Structures can show the parent of a compound that is named as a salt. Where two headings read alike, the source gives them in different places.

Key:
[1] = tested on: BBB; conditions: mice
Description: After 30 minutes circulation, 50 ml phosphate buffered saline (PBS) was perfused through the abdominal aorta. Organs were removed, cut into multiple smaller pieces, rinsed, dried, weighed, homogenised in 500 μl formamide, heated at 60° C. overnight and centrifuged at 21,000×g for 15 minutes. Supernatant absorbance was measured at 620 nm with background correction at 740 nm, and unknowns quantified by standard curve. […] Radu et al., J. Vis. Exp., No. 73, e50062 (2013).
Concentrations from multiple pieces of the same organ were averaged. For imaging of Evans blue extravasation, a method from del Valle and colleagues was adapted. del Valle et al., J. Neurosci. Methods, 174 (1), 42-49 (2008). Mice were intracardially perfused with 50 ml PBS followed by 50 ml of Evans blue (1% w/v) in paraformaldehyde (4% w/v). Cryolesion injury, to induce a local area of BBB damage, was used as a positive control. The brain was embedded in optimal cutting temperature compound (OCT) and cryosectioned into 20 μm thick sections for analysis.

[2] = tested on: key genes related to BBB integrity
Description: Samples of mouse cerebral cortex weighing approximately 50 mg were homogenised in Trizol, and total RNA extracted via the manufacturer's protocol, then quantified by Nanodrop. Samples were reverse transcribed to cDNA using a SuperScript III Reverse-Transcriptase Kit (Life Technology). OmicsGreen qPCR SYBR Green master mix (Omics Bio, Taiwan) was used to monitor amplification using an Applied Biosystems 7500 Real-Time PCR system. GAPDH was used an internal control.

[3] = tested on: Claudin-5; conditions: after VEGF administration
[4] = tested on: brain blood vessels
Description: Mice were anaesthetised and perfused with PBS followed by 100 ml 4% PFA in […] phosphate buffer, pH 7.4. The brain was removed and post-fixed in 4% PFA (overnight, 4° C.) and washed in PBS. Coronal brain sections (100 μm thick) were cut on the same day with a cryomicrotome and processed free floating. Sections were immersed in 4% PFA, 2.5% glutaraldehye in PBS (overnight, 4 ° C.), washed with PBS for 5 minutes for 3 times. The specimens were immersed in 1% osmium tetroxide for 45 minutes, dehydrated and embedded with Spurr's low viscosity resin. The sample was then trimmed and sectioned using a Leica EM UC6 ultramicrotome. The ultrathin sections were then double stained with uranyl acetate and lead citrate. Images were acquired using Jeol JEM 1200EX TEM with an acceleration voltage of 80 KV.

[5] = tested on: BBB; conditions: mice; remark: listed apart in the source
Description: For mice, a Pharmascan 7T 16-cm bore horizontal system was operated by a technician. […] Pre-contrast T1-weighted spin echo images were taken (repetition time (TR)=400 ms, echo time (TE)=10.8 ms, field of view (FOV)=2×2 cm, number of excitations (NEX)=8, slice thickness 0.8 mm). […] Post-contrast T1-weighted images were acquired one minute after contrast agent injection. The SNR was calculated by dividing the signal of a ROI (mean pixel intensity) by the standard deviation of the background noise. All image acquisition, SNR measurement and tumour volume measurement was performed by two MRI operating technicians, who were blinded to the study groups.

[6] = tested on: pericyte coverage of blood vessels
From the text: (§1) Brain tumours from mice which died between day 60 to day 70 were selected for immunofluorescence staining. […] Primary antibodies and dilutions used were anti-Ki67 (1:500 GeneTex GTX16667), Isolectin IB4-AlexaFluor 647, anti-GFAP (1:500 AbCam ab68428), anti-Iba1 (1:1000 Wako 019-19741), anti-p-glycoprotein (1:100 AbCam ab170904), anti-pdgfrβ (1:100, ab32570 Abcam), anti-claudin-5 (1:50 34-1600 Thermo Fisher Scientific), anti-CD31 (1:100 550274, BD Pharmingen). Samples were fixed in 4% w/v paraformaldehyde (PFA) pH 6.8 overnight, embedded in paraffin and sectioned. Slides were de-waxed with xylene, rehydrated through graded alcohols to water, then subjected to antigen retrieval, permeabilisation and blocking in accordance with the manufacturers' instructions. Primary antibody was applied overnight at 4° C. diluted in blocking buffer, apart from isolectin, which was applied for one hour at room temperature. Slides were washed 3× with PBS, before the second primary antibody was added and left overnight at 4° C. Secondary antibodies used were goat anti-rabbit IgG-AlexaFluor 568 (Invitrogen A-11011) and goat anti-rat IgG-AlexaFluor 488 (Invitrogen A-11006), applied for one hour at room temperature. At least three separate sections were examined, and at least three images were captured per section. For frozen sections, samples were perfusion fixed then submerged in 4% paraformaldehyde (PFA), cryoprotected in 30% w/v sucrose solution, then frozen in OCT, sectioned and stained as above, continuing on from blocking. H&E staining (Mayers) followed standard lab protocols. Images were captured using a Zeiss AxioScop microscope with AxioFluor objective lenses and AxioVision software, or a Model-Zeiss LSM 700 Stage confocal microscope.
(§2) GraphPad Prism 7.0b (Mac) was used for all statistical analysis and graph generation. For before-after analyses, paired t-test was used, and for grouped analyses one or two-way ANOVA (analysis of variance) with Tukey's post-test to correct for multiple comparisons were used. For tumour survival analyses, deaths were recorded and used to generate Kaplan-Meier survival curves which were compared using Mantel-Cox log rank tests. IVIS images of tumour luminescence and nanoparticle fluorescence were quantified using Living Image 4.0 software for Mac. MRI DICOM images were sorted in MicroDicom (Windows) and SNR calculation was performed in FIJI/ImageJ (Mac) using the measure tool. For heatmap generation, voxels within the animal were compared to the average of a 64*64 voxel region in the corner of the frame and the difference was scaled from 0 to 100, using Python. Adjustments to immunofluorescence image brightness and contrast were made to improve visual clarity and were applied equally to all images within a series. For colocalisation analysis, the raw images were analysed in Zeiss ZEN software. The threshold for no colocalisation was established using the DAPI/CD31 channels, and that threshold was then applied to the other channels. Pericyte alignment analysis was carried out using the freehand line selection tool in ImageJ. Figures were assembled in Affinity Designer (Mac).

[7] = tested on: claudin 5
From the text: as §1, §2

[8] = tested on: BBB; conditions: pigs, VEGF vs control
From the text: One minute later, a series of three post-contrast images were taken at the same settings. The two pre-contrast images were averaged, and the post contrast image with the highest SNR from each animal was selected for analysis.

[9] = tested on: DBTRG-05MG human glioblastoma cell line; assay: MTT assay cell viability; type: cell-based; conditions: VEGF up to 100 ng/ml
Description: DBTRG-05MG human glioblastoma cells were used in this study. DBTRG-05MG cells were routinely cultured at 37° C. in RPMI 1640 media supplemented with 10% FBS, 1 mM sodium pyruvate and 1% penicillin/streptomycin. MTT assay was carried out in accordance with the manufacturer protocol. For GBM tumour generation, 300,000 live DBTRG-05MG cells, suspended in 6 μl sterile saline, were administered to 6 week old BALB/c NU mice by stereotactic injection, […] The location was 2 mm posterior to the bregma, 1.5 mm laterally in the right cerebral hemisphere, and 2.5 mm deep from the dura, thus delivering the cells into the thalamus. Baumann et al., J. Vis. Exp., No. 67, 3-6 (2012). Bone wax was applied to the skull and the skin was closed with sutures. The success rate of xenograft tumour formation was approximately 90%. Animal deaths were recorded when the animal succumbed from tumour progression, or upon sacrifice if they met pre-determined criteria including severe cachexia (loss of >25% starting body weight), inability to feed, and lack of response to toe-pinch stimulus. Gholamin et al., Cureus, 4, 1-14 (2013).

[10] = tested on: astrocytes; conditions: between treatment groups
From the text: as §1, with “For frozen sections, samples were perfusion fixed then submerged in 4% paraformaldehyde (PFA), cryoprotected in 30% w/v sucrose solution, then frozen in OCT, sectioned and stained as above, continuing on from blocking. H&E staining (Mayers) followed standard lab protocols. Images were captured using a Zeiss AxioScop microscope with AxioFluor objective lenses and AxioVision software, or a Model-Zeiss LSM 700 Stage confocal microscope.” left out

[11] = tested on: P-glycoprotein; conditions: all time points after VEGF
From the text: as §1, with “For frozen sections, samples were perfusion fixed then submerged in 4% paraformaldehyde (PFA), cryoprotected in 30% w/v sucrose solution, then frozen in OCT, sectioned and stained as above, continuing on from blocking. H&E staining (Mayers) followed standard lab protocols. Images were captured using a Zeiss AxioScop microscope with AxioFluor objective lenses and AxioVision software, or a Model-Zeiss LSM 700 Stage confocal microscope.” left out

[12] = tested on: BBB; conditions: antibody 45 minutes following VEGF; preliminary evidence
Description: The antibody was allowed to circulate for 2 hours, then mice were perfused with 50 mL saline followed by 50 mL paraformaldehyde (4% w/v). The brain was removed, kept in 4% PFA overnight, then processed for frozen sections. As a positive control, 5 μl of antibody was injected directly into the brain prior to perfusion. Frozen sections were then stained using secondary antibody conjugated to Alexa 488. As a negative control, brain sections from an untreated animal were used. As a second positive control, a brain section from an untreated animal was stained with anti-nrCAM using conventional lab techniques (1hr room temperature). All images, aside from the stained positive control, were taken at fixed exposure lengths. The intensity of the green channel was quantified in ImageJ.

[13] = tested on: BBB; assay: HPLC quantification of TMZ in brain; type: in vivo; conditions: mice
Description: Approximately 100 mg tissue was homogenised in acidified ammonium acetate (200 μl, 10 mM pH 3.5), zinc sulphate (200 μl, 100 mM) and methanol (400 μl), followed by centrifugation at 10,000×g for 30 minutes at 4° C. Supernatant was taken for HPLC analysis. Separation was carried out with a Water e2695 separation module using 80:20 ratio of acetic acid (0.1% v/v) to methanol at a flow rate of 0.8 ml/min in an Atlantis T3 3 μm HPLC column at 35° C. Detection was performed using a Waters 2489 UV/vis detector at 316 nm. Theophylline was used as an internal standard, measured at 275 nm, and results calculated as the peak ratio of TMZ to theophylline.

[14] = tested on: BBB; assay: Doxorubicin biodistribution (HPLC)
Description: Organs were removed, dried, weighed, cut into multiple smaller pieces (approximately 100 mg tissue or 100 μl plasma) then thoroughly homogenised with 1 ml lysis buffer (0.25 M sucrose, 5 mM Tris-HCl, 1 mM MgSO4, 1 mM CaCl2, pH 6.7). 200 μl homogenate was then mixed with 1 ml acidified alcohol (70% ethanol, 0.3 N HCl), left overnight at −20° C., then centrifuged at 10,000×g for 30 minutes at 4° C. Supernatant was taken for HPLC analysis. Separation was via a Waters e2695 separation module, mobile phase 35% 10 mM KH2PO4, 65% methanol, flow rate 1 ml/min in an X-Bridge 5 μm column at 40° C. Detection used a Waters e2475 module (ex 480, em 600 nm).
Aryal et al., J. Control. Release, 204, 60-69 (2015); Kovacs et al., 2014; and Wohlfart et al., J Control Release, 154 (1), 103-107 (2011). […] The drug was allowed to circulate for two hours before the animal was perfused with saline. Doxorubicin was then extracted from the vital organs and quantified by HPLC (FIG. 8c). […] FIG. 2b.

[15] = mouse brain 45 minutes or 4 hours following VEGF
[16] = GBM tumour region, VEGF pre-treatment

VEGF
Evans blue uptake in kidney ([1]; 45 minutes after VEGF): increase | concentration of Evans blue in brain tissue compared to control-treated animals ([1]; Evans blue 45 minutes after VEGF, 30 minutes circulation): 4.85 fold | concentration of Evans blue in brain tissue compared to control ([1]; Evans blue 4 hours following VEGF): no increase was detected | p-glycoprotein gene expression (Abcb1a) ([2]; following VEGF at the given dose): No change | expression of BBB transporters Slc2a1 (GLUT-1) and Slc6a8 (CRT) [2, 15]: increase | expression of tight junction components Tjp2 (ZO-2) and Cldn5 (Claudin 5) [2, 15]: decrease | Claudin-5 protein expression (Western blot) [3]: trend towards reduced protein expression | morphology of brain blood vessels (TEM) ([4]; 15 minutes following VEGF injection): slightly dilated and lacking adjacent pericytes | morphology of brain blood vessels (TEM) ([4]; 45 minutes following VEGF): no longer dilated | morphology of brain blood vessels (TEM) ([4]; four hours following VEGF): both vessels and pericytes appeared normal | increase in average SNR of the cortex, post- vs pre-contrast ([5]; Gd given 45 minutes following VEGF): 16% | SNR enhancement of the cortex, post- vs pre-contrast ([5]; Gd given 4 hours after VEGF): less than 5% | signal enhancement of area surrounding central cerebral sinus ([5]; VEGF vs control groups): no significant difference between the groups | pericyte coverage of blood vessels [6, 16]: 28.9% | pericyte coverage of blood vessels ([6]; healthy brain, 15 minutes after VEGF): 57.6% | pericyte coverage of blood vessels ([6]; healthy brain, 45 minutes after VEGF): 86.2% | pericyte coverage of blood vessels ([6]; healthy brain, 4 hours after VEGF): 83.0% | colocalisation of claudin 5 and CD31 [7, 16]: 48.5% | colocalisation of claudin 5 and CD31 ([7]; healthy brain, 45 minutes following VEGF): 55.8% | colocalisation of claudin 5 and CD31 ([7]; healthy brain, 4 hours following VEGF): 42.7% | SNR enhancement of the central cerebral sinus [8]: no significant difference | effect on DBTRG-05MG cell viability [9]: did not affect | astrocyte morphology (GFAP) [10]: no obvious change | P-glycoprotein staining [11]: appeared uniformly on the membrane of blood vessels at all time points | passage of systemically injected IgG antibody into the brain [12]: allows the passage of systemically injected IgG antibody into the brain

Cn1nnc2c(C(N)=O)ncn2c1=O [TMZ, Temozolomide]
brain concentration of TMZ after VEGF pre-treatment ([13]; TMZ 20 mg/kg): did not further enhance | TMZ concentration in the brain after VEGF pre-treatment ([13]; VEGF or 10-fold higher VEGF): does not significantly increase

COc1cccc2c1C(=O)c1c(O)c3c(c(O)c1C2=O)C[C@@](O)(C(=O)CO)C[C@@H]3O[C@H]1C[C@H](N)[C@H](O)[C@H](C)O1 [Doxorubicin, Doxorubicin Hydrochloride]
doxorubicin concentration in brain after VEGF pre-treatment vs. control ([14]; 8 mg/kg 45 minutes after VEGF, mice): statistically significant increase | systemic Doxorubicin entering the brain ([14]; healthy control mice, 8 mg/kg, two hours circulation): less than 0.1%
